Where two headings read alike, the source gives them in different places. A value given as a limit tells only on which side of the number the result lay.

Common to all, as to type: cell-based
Assay [1] concerns tumor cells. Briefly: Hoechst 33342 nuclear staining (48 h read-out). In outline: (§1)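 Adherent cells pre-spread 24 h before dosing, suspension cells dosed at seeding; compounds at 0.001 μM-10 μM final, 48 h at culture conditions. Hoechst 33342 (2-5 μg/ml) added for 30 min, then fluorescence microscopy scoring of apoptotic nuclear fraction and apoptosis-specific morphology, reported as scores A-D.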

Assay [2] can be described thus: Hoechst 33342 nuclear staining (48 h read-out). The method, boiled down: as §1
The subject of assay [3] is tumor cells. Briefly: MTS proliferation assay (72 h read-out). In outline:
(§2)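 Viability was read by MTS absorbance at 492 nm after 3 h with reagent. Before that, cells plated a day earlier at 1.5×10^3–10^4 per well had been incubated with test compound at final concentrations of 0.001–10 μM for 72 h; activity is given as category scores A–D.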
Background: Tetrazolium dyes change colour on reduction, which living cells bring about.

Assay [4] can be described thus: MTS proliferation assay (72 h read-out). The following applies: MRC5 cells. In outline:
as §2

The subject of assay [5] is tumor cells. Briefly: Mitochondrial membrane potential, JC-1 (read-out 48 h). Particulars: JC-1, 48 h. In outline:
(§3)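 Tumor cells were treated with test compounds (adherent cells after 24 h of attachment, suspension cells immediately), medium holding up to 5% DMSO. After 48 h, JC-1 (2-5 μg/ml in added medium) was applied for 30 min. Fluorescence microscopy (FITC/TRITC filters) scored the fraction of cells with dissipated mitochondrial membrane potential as categories A-D.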

Experiment in assay [6]: as above
The following applies: PBL, JC-1, 48 h. The method, boiled down:
as §3

Setting [7] is: HeLa cells, read-out: Hoechst 33342 nuclear staining EC50, HeLa.
[8] abbreviates: Jily cells, read-out: Hoechst 33342 nuclear staining EC50, Jily.
The mark [9] stands for this setting: Jurkat cells, read-out: Hoechst 33342 nuclear staining EC50, Jurkat.
The mark [10] stands for this setting: MRC5 cells, read-out: Hoechst 33342 nuclear staining EC50, MRC5.
Setting [11] is: PBL, read-out: Hoechst 33342 nuclear staining EC50, PBL.
[12] abbreviates: HT1080 cells, read-out: MTS proliferation assay IC50, HT1080.
[13] abbreviates: HeLa cells, read-out: MTS proliferation assay IC50, HeLa.
Setting [14] is: Jily cells, read-out: MTS proliferation assay IC50, Jily.
[15] abbreviates: HeLa cells, read-out: Mitochondrial membrane potential (read-out 48 h) HeLa.
[16] abbreviates: Jily cells, read-out: Mitochondrial membrane potential (read-out 48 h) Jily.
The mark [17] stands for this setting: Jurkat cells, read-out: Mitochondrial membrane potential (read-out 48 h) Jurkat.
[18] abbreviates: MCF7 cells, read-out: Mitochondrial membrane potential (read-out 48 h) MCF7.
[19] abbreviates: Jurkat cells, read-out: MTS proliferation assay IC50, Jurkat.

For the compound `CCNc1ncccc1C(=O)c1oc2ccc(Cl)cc2c1N` [Example 76], the EC50 (in the assay on tumor cells [1] (setting [7]); in the assay on tumor cells [1] (setting [8]); in the assay with tumor cells [1] (setting [9]); in assay [2] (setting [10]); in assay [2] (setting [11]); in the assay with tumor cells [5] (setting [15])) was > 1000 nM throughout. For the same compound, the EC50 (in the assay with tumor cells [5] (setting [16]); in the assay on tumor cells [5] (setting [17]); with tumor cells [5] (setting [18]); in assay [6]) was > 1000 nM in each case. Besides, the IC50 (in the assay on tumor cells [3] (setting [12]); with tumor cells [3] (setting [13]); with tumor cells [3] (setting [14]); in assay [4]) was > 1000 nM throughout.
Consider `CN1CCN(c2ccc(F)cc2C(=O)c2oc3ccc(Cl)cc3c2N)CC1` [Example 102], for which the EC50 (in the assay with tumor cells [1] (setting [7]); in the assay on tumor cells [1] (setting [8]); with tumor cells [1] (setting [9]); in assay [2] (setting [10]); in assay [2] (setting [11]); with tumor cells [5] (setting [15])) was > 1000 nM each time. The EC50 (in the assay on tumor cells [5] (setting [16]); with tumor cells [5] (setting [17]); in the assay with tumor cells [5] (setting [18]); in assay [6]) was > 1000 nM each time. The IC50 is > 1000 nM in the assay on tumor cells [3] (setting [12]); > 1000 nM with tumor cells [3] (setting [13]); > 1000 nM with tumor cells [3] (setting [14]); 100 to 1000 nM in the assay on tumor cells [3] (setting [19]); > 1000 nM in assay [4].
On to `CCOc1ccc(F)cc1C(=O)c1cc2cc(OCc3ccccc3)ccc2o1` [Example 63], for which the EC50 (with tumor cells [1] (setting [7]); in the assay on tumor cells [1] (setting [8]); in the assay with tumor cells [1] (setting [9]); in assay [2] (setting [10]); in assay [2] (setting [11]); in the assay with tumor cells [5] (setting [15])) was > 1000 nM throughout. The EC50 (in the assay with tumor cells [5] (setting [16]); in the assay with tumor cells [5] (setting [17]); in the assay on tumor cells [5] (setting [18]); in assay [6]) was > 1000 nM throughout. In addition, the IC50 (in the assay on tumor cells [3] (setting [12]); in the assay on tumor cells [3] (setting [13]); with tumor cells [3] (setting [14]); in the assay on tumor cells [3] (setting [19]); in assay [4]) was > 1000 nM throughout.
For `CCOc1ccc(F)cc1C(=O)c1oc2ccc(C)cc2c1N` [Example 62], the EC50 in the assay with tumor cells [1] (setting [7]) is 10 to 100 nM; in the assay on tumor cells [1] (setting [8]) it was < 10 nM; in the assay on tumor cells [1] (setting [9]), < 10 nM; in assay [2] (setting [10]), > 1000 nM; in assay [2] (setting [11]), > 1000 nM; in the assay on tumor cells [5] (setting [15]), 10 to 100 nM. Also, the EC50 was < 10 nM with tumor cells [5] (setting [16]), < 10 nM in the assay with tumor cells [5] (setting [17]), > 1000 nM with tumor cells [5] (setting [18]) and > 1000 nM in assay [6]. For the same compound, the IC50 was < 10 nM with tumor cells [3] (setting [12]); 10 to 100 nM in the assay on tumor cells [3] (setting [13]); < 10 nM in the assay with tumor cells [3] (setting [14]); < 10 nM with tumor cells [3] (setting [19]); < 10 nM in assay [4].
As for `CN1CCN(c2ncccc2C(=O)c2oc3ccc(Cl)cc3c2N)CC1` [Example 85], the EC50 was > 1000 nM in the assay with tumor cells [1] (setting [7]); 100 to 1000 nM with tumor cells [1] (setting [8]); 100 to 1000 nM in the assay with tumor cells [1] (setting [9]); > 1000 nM in assay [2] (setting [10]); > 1000 nM in assay [2] (setting [11]); > 1000 nM in the assay on tumor cells [5] (setting [15]). Also, the EC50 is 100 to 1000 nM in the assay with tumor cells [5] (setting [16]), 100 to 1000 nM in the assay with tumor cells [5] (setting [17]), > 1000 nM in the assay on tumor cells [5] (setting [18]) and > 1000 nM in assay [6]. In addition, the IC50 was > 1000 nM in the assay on tumor cells [3] (setting [12]); > 1000 nM in the assay on tumor cells [3] (setting [13]); 100 to 1000 nM in the assay on tumor cells [3] (setting [14]); 100 to 1000 nM in the assay with tumor cells [3] (setting [19]); > 1000 nM in assay [4].
On to `CCN(CC)c1ncccc1C(=O)c1oc2ccc(Cl)cc2c1N` [Example 81], for which the EC50 with tumor cells [1] (setting [7]) is 100 to 1000 nM; with tumor cells [1] (setting [8]) it was 100 to 1000 nM; with tumor cells [1] (setting [9]), 100 to 1000 nM; in assay [2] (setting [10]), > 1000 nM; in assay [2] (setting [11]) it was > 1000 nM; with tumor cells [5] (setting [15]), > 1000 nM. For the same compound, the EC50 is 100 to 1000 nM with tumor cells [5] (setting [16]), 10 to 100 nM in the assay with tumor cells [5] (setting [17]), > 1000 nM with tumor cells [5] (setting [18]) and > 1000 nM in assay [6]. Moreover, the IC50 was 10 to 100 nM with tumor cells [3] (setting [12]); 100 to 1000 nM in the assay on tumor cells [3] (setting [13]); 100 to 1000 nM with tumor cells [3] (setting [14]); 10 to 100 nM with tumor cells [3] (setting [19]); 100 to 1000 nM in assay [4].

The record behind these values is patent publication US8486996B2, “Aroylfuranes and aroylthiophenes” (Basilea Pharmaceutica AG, priority 2006, dated 2013).
